# Patent US8569316B2, “Pyrimido [5,4-D] pyrimidine derivatives for the inhibition of tyrosine kinases” (Boehringer Ingelheim International GmbH, priority 2009, dated 2013)
# Target: B-Raf (V600E)-kinase (Homo sapiens (Human), UniProt P15056, V600E)
# Assay: Kinase test B-Raf (V600E)
# Type: biochemical
# Conditions: 250 μM ATP, biotinylated MEK1 substrate
# Protocol: In a dilution series 10 μL of test substance solution are placed in a multiwell plate. The dilution series is selected so that generally a range of concentrations of 2 μM to 0.128 nM or 0.017 nM is covered. If necessary the initial concentration of 2 μM is changed to 50 μM, 10 μM or 0.4 μM or 0.2857 μM and further dilution is carried out accordingly. The final concentration of DMSO is 5%. 10 μL of the B-Raf (V600E)-kinase solution are pipetted in (containing 0.5 ng B-Raf (V600E)-kinase in 20 mM Tris-HCl pH 7.5, 0.1 mM EDTA, 0.1 mM EGTA, 0.286 mM sodium orthovanadate, 10% glycerol, 1 mg/mL bovine serum albumin, 1 mM dithiothreitol) and the mixture is incubated for 1 h at RT under with shaking. The kinase reaction is started by the addition of 20 μL ATP solution [final concentration: 250 μM ATP, 30 mM Tris-HCl pH 7.5, 0.02% Brij, 0.2 mM sodium orthovanadate, 10 mM magnesium acetate, phosphatase cocktail (Sigma, #P2850, dilution recommended by the manufacturer), 0.1 mM EGTA] and 10 μL MEK1 solution [containing 50 ng biotinylated MEK1 (prepared from purified MEK1 according to standard procedure, e.g. with EZ-Link Sulpho-NHS-LC-Biotin reagent, Pierce, #21335) in 50 mM Hepes pH 7.5, 150 mM NaCl, 10% glycerol, 0.02% Brij-35, 0.2 mM PMSF, 0.2 mM benzamidine] and carried out for 60 min at RT with constant shaking. The reaction is stopped by the addition of 12 μL of a 100 mM EDTA solution and incubation is continued for a further 5 min. 55 μL of the reaction solution are transferred into a streptavidin-coated plate (e.g. Streptawell HighBond, Roche, #11989685001) and shaken gently for 1 h at RT, in order to bind biotinylated MEK1 to the plate. After elimination of the liquid the plate is washed five times with 200 μL of 1×PBS and 100 μL solution of primary antibody plus europium-labelled secondary antibody [Anti Phospho-MEK (Ser217/221), Cell Signaling, #9121 and Eu-N1 labeled goat-anti-rabbit antibody, Perkin Elmer, #AD0105], the primary antibody is diluted 1:2000 and the secondary antibody is diluted to 0.4-0.5 μg/mL in Delfia Assay Buffer (Perkin Elmer, #1244-111). After 1 h shaking at RT the solution is poured away and washed five times with 200 μL Delfia Wash Buffer (Perkin Elmer, #4010-0010/#1244-114). After the addition of 200 μL Enhancement Solution (Perkin Elmer, #4001-0010/#1244-105) the mixture is shaken for 10 min at RT and then measured in a Wallac Victor using the program “Delfia Time Resolved Fluorescence (Europium)”. IC50 values are obtained from these dosage-activity curves using a software program (GraphPadPrizm).
# Chain of B-Raf (V600E)-kinase (P15056 whole entry V600E): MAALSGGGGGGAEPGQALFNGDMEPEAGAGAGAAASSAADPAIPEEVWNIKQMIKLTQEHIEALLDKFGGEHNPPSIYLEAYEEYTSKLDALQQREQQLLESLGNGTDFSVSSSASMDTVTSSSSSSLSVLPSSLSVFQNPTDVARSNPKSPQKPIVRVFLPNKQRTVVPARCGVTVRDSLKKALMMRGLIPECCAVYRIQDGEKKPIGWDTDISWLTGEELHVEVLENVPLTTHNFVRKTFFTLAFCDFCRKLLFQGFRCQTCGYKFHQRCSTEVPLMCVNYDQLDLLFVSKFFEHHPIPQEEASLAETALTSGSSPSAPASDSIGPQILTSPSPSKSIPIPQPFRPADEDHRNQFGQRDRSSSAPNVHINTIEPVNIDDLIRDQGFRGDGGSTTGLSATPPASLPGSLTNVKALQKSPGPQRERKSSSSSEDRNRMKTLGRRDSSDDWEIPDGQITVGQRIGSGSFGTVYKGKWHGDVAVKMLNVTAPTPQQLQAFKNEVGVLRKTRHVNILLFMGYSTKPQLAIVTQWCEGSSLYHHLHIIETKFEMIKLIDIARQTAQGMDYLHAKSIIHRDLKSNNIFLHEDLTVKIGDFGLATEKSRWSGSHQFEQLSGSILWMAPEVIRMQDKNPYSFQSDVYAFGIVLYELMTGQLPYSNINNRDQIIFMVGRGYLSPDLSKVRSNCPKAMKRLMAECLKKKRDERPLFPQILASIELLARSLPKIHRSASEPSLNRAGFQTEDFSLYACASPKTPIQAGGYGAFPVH
row,SMILES,IC50
1,COCCN1CCN(c2ccc3ncnc(Sc4cc(C(=O)Nc5cccc(C(C)(C)C#N)c5)ccc4C)c3n2)CC1 [III-52],261 nM
2,COc1c(NC(=O)c2ccc(C)c(Nc3ncnc4ccc(C5CCNC5)nc34)c2)cc(C(C)(C)C)cc1NS(C)(=O)=O (stereo not drawn) [III-39],151 nM
3,CCN1CCC(Cc2ccc3ncnc(Nc4cc(C(=O)Nc5cc(C(C)(C)C)cc(NS(C)(=O)=O)c5OC)ccc4C)c3n2)CC1 [III-45],530 nM
4,COCCN1CCN(c2ccc3ncnc(Nc4cc(NC(=O)c5cccc(C(C)(C)C#N)c5)ccc4C)c3n2)CC1 [IV-3],18 nM
5,Cc1ccc(C(=O)Nc2cccc(C(C)(C)C#N)c2)cc1Nc1ncnc2ccc(N3CCOCC3)nc12 [III-3],7 nM

# The remaining lines, values ahead:
row,IC50,SMILES
1,170 nM,COc1c(NC(=O)c2ccc(C)c(Nc3ncnc4ccc(CC5CCNCC5)nc34)c2)cc(C(C)(C)C)cc1NS(C)(=O)=O [III-37]
2,443 nM,COCCN1CCC(c2ccc3ncnc(Nc4cc(C(=O)Nc5cc(C(C)(C)C)cc(NS(C)(=O)=O)c5OC)ccc4C)c3n2)CC1 [III-36]
3,24 nM,COc1c(NC(=O)c2ccc(C)c(Nc3ncnc4ccc(N(C)C5CCOC5)nc34)c2)cc(C(C)(C)C)cc1NS(C)(=O)=O (stereo not drawn) [III-20]
4,35 nM,COCCN1CCN(c2ccc3ncnc(Nc4cc(C(=O)Nc5cc(C(C)(C)C)on5)ccc4C)c3n2)CC1 [III-11]
